Assay results taken from the supplement of paper PMC5303821, “Major sulfonate transporter Soa1 in Saccharomyces cerevisiae and considerable substrate diversity in its fungal family” (Nature Communications, 2017).
Where a name gives a salt, the structure may show the parent alone.

Assays:
Conditions in all cases: sulfur source concentration 200 µM; S. cerevisiae S288C/BY sul1Δ sul2Δ soa1Δ with transporter ortholog inserted at SOA1 locus; sulfur-free B medium, 4% glucose, pH 6.5, sole sulfur source
[1] = tested on: Aspergillus nidulans (IAM 2006)_astA; assay: lag phase before growth; higher = slower start of growth
Description: (§1)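 S. cerevisiae sul1Δ sul2Δ soa1Δ strains expressing 20 fungal SOA1 orthologs (or no transporter, 'soa1 del') were grown in liquid sulfur-free B medium, 4% glucose, pH 6.5 (7 mM K2HPO4). The strains were sulfur-starved for 3 days beforehand. Each sulfur compound was the sole sulfur source at 200 µM (sulfate also at 40 mM). OD600 curves of duplicate cultures were averaged and fitted (logistic / Richards, GroFit) to give maximal growth rate, maximal density and lag phase; temperature not stated.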

[2] = tested on: Metarhizium robertsii_XP_007823832; assay: as above
Description: as §1

[3] = tested on: Ogataea parapolymorpha_XP_013935289; assay: as above
Description: as §1

[4] = tested on: Saccharomyces cerevisiae_SOA1; assay: as above
Description: as §1

[5] = tested on: Aspergillus nidulans (IAM 2006)_astA; assay: maximal culture density with compound as sole sulfur source (OD600); higher = better growth
Description: as §1

[6] = tested on: Aspergillus nidulans_CBF74694; assay: as above
Description: as §1

[7] = tested on: Aspergillus nidulans_CBF80346; assay: as above
Description: as §1

[8] = tested on: Aspergillus nidulans_XP_660563; assay: as above
Description: as §1

[9] = tested on: Aspergillus nidulans_XP_660670; assay: as above
Description: as §1

[10] = tested on: Aspergillus nidulans_XP_661711; assay: as above
Description: as §1

[11] = tested on: Aspergillus nidulans_XP_661733; assay: as above
Description: as §1

[12] = tested on: Aspergillus nidulans_XP_681611; assay: as above
Description: as §1

[13] = tested on: Fusarium oxysporum_ENH65823; assay: as above
Description: as §1

[14] = tested on: Metarhizium robertsii_XP_007821441; assay: as above
Description: as §1

[15] = tested on: Metarhizium robertsii_XP_007822519; assay: as above
Description: as §1

[16] = tested on: Metarhizium robertsii_XP_007823832; assay: as above
Description: as §1

[17] = tested on: Ogataea parapolymorpha_XP_013932458; assay: as above
Description: as §1

[18] = tested on: Ogataea parapolymorpha_XP_013935289; assay: as above
Description: as §1

[19] = tested on: Ogataea parapolymorpha_XP_013936897; assay: as above
Description: as §1

[20] = tested on: Saccharomyces cerevisiae_SOA1; assay: as above
Description: as §1

[21] = tested on: Saccharomyces eubayanus_SOA1; assay: as above
Description: as §1

[22] = tested on: Saccharomyces eubayanus_SOA2; assay: as above
Description: as §1

[23] = tested on: Saccharomyces uvarum_SOA1; assay: as above
Description: as §1

[24] = tested on: Saccharomyces uvarum_SOA2; assay: as above
Description: as §1

[25] = tested on: soa1 del; assay: as above
Description: as §1

[26] = tested on: Aspergillus nidulans (IAM 2006)_astA; assay: maximal growth rate with compound as sole sulfur source (OD600 per h); higher = better growth / uptake of the sulfur source
Description: as §1

[27] = tested on: Aspergillus nidulans_CBF74694; assay: as above
Description: as §1

[28] = tested on: Aspergillus nidulans_CBF80346; assay: as above
Description: as §1

[29] = tested on: Aspergillus nidulans_XP_660563; assay: as above
Description: as §1

[30] = tested on: Aspergillus nidulans_XP_660670; assay: as above
Description: as §1

[31] = tested on: Aspergillus nidulans_XP_661711; assay: as above
Description: as §1

[32] = tested on: Aspergillus nidulans_XP_661733; assay: as above
Description: as §1

[33] = tested on: Aspergillus nidulans_XP_681611; assay: as above
Description: as §1

[34] = tested on: Fusarium oxysporum_ENH65823; assay: as above
Description: as §1

[35] = tested on: Metarhizium robertsii_XP_007821441; assay: as above
Description: as §1

[36] = tested on: Metarhizium robertsii_XP_007822519; assay: as above
Description: as §1

[37] = tested on: Metarhizium robertsii_XP_007823832; assay: as above
Description: as §1

[38] = tested on: Ogataea parapolymorpha_XP_013932458; assay: as above
Description: as §1

[39] = tested on: Ogataea parapolymorpha_XP_013935289; assay: as above
Description: as §1

[40] = tested on: Ogataea parapolymorpha_XP_013936897; assay: as above
Description: as §1

[41] = tested on: Saccharomyces cerevisiae_SOA1; assay: as above
Description: as §1

[42] = tested on: Saccharomyces eubayanus_SOA1; assay: as above
Description: as §1

[43] = tested on: Saccharomyces eubayanus_SOA2; assay: as above
Description: as §1

[44] = tested on: Saccharomyces uvarum_SOA1; assay: as above
Description: as §1

[45] = tested on: Saccharomyces uvarum_SOA2; assay: as above
Description: as §1

[46] = tested on: soa1 del; assay: as above
Description: as §1

[47] = tested on: Aspergillus nidulans_XP_661733; assay: lag phase before growth; higher = slower start of growth
Description: as §1

[48] = tested on: Saccharomyces uvarum_SOA2; assay: as above
Description: as §1

SMILES: C[N+](C)(C)CCOS(=O)(=O)[O-] [Choline sulfate]
- lag phase before growth [1]: 6.39 h
- lag phase before growth [2]: 8.32 h
- lag phase before growth [3]: 19.4 h
- lag phase before growth [4]: 28.7 h
- maximal culture density [5]: 1.61
- maximal culture density [6]: 0.215
- maximal culture density [7]: 0.245
- maximal culture density [8]: 0.381
- maximal culture density [9]: 0.282
- maximal culture density [10]: 0.282
- maximal culture density [11]: 0.257
- maximal culture density [12]: 0.352
- maximal culture density [13]: 0.284
- maximal culture density [14]: 0.25
- maximal culture density [15]: 0.238
- maximal culture density [16]: 1.61
- maximal culture density [17]: 0.288
- maximal culture density [18]: 1.6
- maximal culture density [19]: 0.335
- maximal culture density [20]: 1.59
- maximal culture density [21]: 0.49
- maximal culture density [22]: 0.202
- maximal culture density [23]: 0.69
- maximal culture density [24]: 0.237
- maximal culture density [25]: 0.22
- maximal growth rate [26]: 0.0987
- maximal growth rate [27]: 0.00254
- maximal growth rate [28]: 0.00384
- maximal growth rate [29]: 0.0061
- maximal growth rate [30]: 0.00346
- maximal growth rate [31]: 0.00345
- maximal growth rate [32]: 0.00364
- maximal growth rate [33]: 0.0057
- maximal growth rate [34]: 0.00381
- maximal growth rate [35]: 0.00312
- maximal growth rate [36]: 0.00309
- maximal growth rate [37]: 0.0809
- maximal growth rate [38]: 0.00365
- maximal growth rate [39]: 0.072
- maximal growth rate [40]: 0.00441
- maximal growth rate [41]: 0.0576
- maximal growth rate [42]: 0.0058
- maximal growth rate [43]: 0.00319
- maximal growth rate [44]: 0.00649
- maximal growth rate [45]: 0.00318
- maximal growth rate [46]: 0.00393

SMILES: O=C(O)CS(=O)(=O)O [Sulfoacetic acid]
- lag phase before growth [47]: 26.9 h
- lag phase before growth [3]: 8.28 h
- lag phase before growth [4]: 9.42 h
- lag phase before growth [48]: 38.2 h
- maximal culture density [5]: 0.731
- maximal culture density [6]: 0.183
- maximal culture density [7]: 0.223
- maximal culture density [8]: 0.308
- maximal culture density [9]: 0.222
- maximal culture density [10]: 0.223
- maximal culture density [11]: 0.777
- maximal culture density [12]: 0.3
- maximal culture density [14]: 0.225
- maximal culture density [15]: 0.282
- maximal culture density [16]: 0.712
- maximal culture density [17]: 0.251
- maximal culture density [18]: 1.33
- maximal culture density [19]: 0.275
- maximal culture density [20]: 1.28
- maximal culture density [21]: 0.274
- maximal culture density [22]: 0.211
- maximal culture density [23]: 0.391
- maximal culture density [24]: 1.01
- maximal culture density [25]: 0.216
- maximal growth rate [26]: 0.0131
- maximal growth rate [27]: 0.00286
- maximal growth rate [28]: 0.00462
- maximal growth rate [29]: 0.00621
- maximal growth rate [30]: 0.00401
- maximal growth rate [31]: 0.00399
- maximal growth rate [32]: 0.0174
- maximal growth rate [33]: 0.00636
- maximal growth rate [34]: 0.00684
- maximal growth rate [35]: 0.00346
- maximal growth rate [36]: 0.00308
- maximal growth rate [37]: 0.0177
- maximal growth rate [38]: 0.00439
- maximal growth rate [39]: 0.0296
- maximal growth rate [40]: 0.00474
- maximal growth rate [41]: 0.0325
- maximal growth rate [42]: 0.0033
- maximal growth rate [43]: 0.00305
- maximal growth rate [44]: 0.00282
- maximal growth rate [45]: 0.0314
- maximal growth rate [46]: 0.00385
